In publication PMC7501730, “Discovery of novel small molecule inhibitors of S100P with in vitro anti-metastatic effects on pancreatic cancer cells” (European Journal of Medicinal Chemistry, 2020):

Tests used:
S100P-RAGE interaction = target: T1, S100P-RAGE interaction (Homo sapiens, UniProt P25815); test: ELISA of S100P-RAGE binding inhibition; conditions: for IC50 / ELISA inhibition: Table 2; for IC50: analog series of hit 4, read-out: Estimated IC50; for ELISA inhibition: concentration with significant inhibition of S100P-RAGE binding, asterisks = significance by one-way ANOVA
T1 construct: His tag (N); made in house; host or cells: Escherichia coli BL21*
T1 sequence (P25815 1-95): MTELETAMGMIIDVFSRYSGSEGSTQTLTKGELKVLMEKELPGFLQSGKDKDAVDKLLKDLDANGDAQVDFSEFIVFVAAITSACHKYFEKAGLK
Experimental: The purchased computational screening hits were subjected to initial biological testing for inhibition of S100P-RAGE binding (ELISA), with cromolyn as positive control, using an adaptation of the reported ELISA for S100 family members.
Fig. 2 Effects of compounds 1–14 on S100P binding to RAGE. Human S100P (2 μM) coated wells were incubated with increasing concentrations of the compound tested, in triplicate, and exposed to human RAGE-Fc (100 nM) followed by goat anti-human secondary antibody to detect RAGE bound S100P. Data are compared to S100P/RAGE binding with no inhibitor (DMSO, 100%) and are presented as mean ± SEM; data is significant by one way ANOVA, where ∗ = p < 0.05, ∗∗ = p < 0.01 and ∗∗∗ = p < 0.001; n = 9 from 3 plates.
To generate human S100P recombinant protein, a pQE-30 ([…]) plasmid encoding S100P with N-terminal histidine tags (gifted by Dr Igor Barsukov, Liverpool University, UK), was transformed into BL21∗ competent Escherichia coli cells. Recombinant protein was purified using a HisTrap Nickel-nitrilotriacetic acid (Ni-NTA) agarose column (GE Healthcare, UK).
Purified recombinant S100P (2μM/well) in phosphate buffer (PBS; 137 mM NaCl, 2.7 mM KCl, 10 mM Na2HPO4, 1.8 mM KH2PO4, pH 7.4; supplemented with 1 mM CaCl2, 10 μM ZnCl2, and 0.5 mM MgCl2) was used for coating a 96 well plate (NunclonDelta, Fisher), and incubated overnight at 37 °C.
Following washing, S100P non-specific binding sites were blocked with 1% bovine serum albumin (BSA; Fisher, UK) in PBS for 2 h at 37 °C. Following three washes, S100P was incubated with increasing concentrations of compounds, in parallel to cromolyn and DMSO treated wells, all in triplicate. Then 30 nM recombinant human receptor for advanced glycation end products (rh/RAGE-Fc; R&D Systems) was added and incubated for 1 h at 37 °C. Controls included a negative control (S100P protein, no RAGE-Fc), a positive control (S100P protein plus RAGE), and vehicle control (0.001% DMSO in PBS) were included in each plate. After three washes in PBS, all wells were exposed to goat anti-human HRP conjugate (1:1000; Millipore) for 1 h at 37 °C in order to detect bound receptors. Subsequent to washes, wells were incubated for 20 min in the dark with 3,3′,5,5′-tetramethylbenzidene (TMB) substrate (Sigma, UK). Plates were read at 450 nm using a Multiskan Ascent spectrophotometer (Fisher Scientific, UK). All sample readings were normalized to the positive control (S100P plus RAGE-Fc). Statistical analysis was performed and graphs plotted using the GraphPad Prism software in the following way: One Way ANOVA was used to compare the effects of concentration of each compound to the effects of vehicle control (DMSO), and p values of <0.05 were considered statistically significant. A post hoc analysis was conducted using Dunnetts multiple comparisons test; results are indicated by ∗ = p < 0.05; ∗∗ = p < 0.01 and ∗∗∗ = p < 0.001.

[1] = system: BxPC-3 cells (S100P-expressing); test: LDH release cytotoxicity assay, BxPC-3; format: cell-based, Human; conditions: BxPC-3, 10 μM, over three days incubation, compared to vehicle control
Experimental: Metabolic activity and cytotoxicity/cytolysis were measured with the MTS (CellTiter® 96 AQueous One Solution assay, Promega) and LDH release (CytoTox-ONE™ Homogeneous Membrane Integrity assay, Promega) assays respectively, in S100P-expressing (BxPC-3) and S100P-negative (Panc-1) cell lines, at a compound concentration of 10 μM. Cromolyn was used as a positive control.
1 × 10^5 Panc-1 cells and 1x10^5 BxPC-3 cells were plated and allowed to adhere for 24 h; the cells were treated with cromolyn or the hit compounds for up to 3 days. MTS (CellTiter® 96 AQueous One Solution assay, Promega) and LDH release (CytoTox-ONE™ Homogeneous Membrane Integrity assay, Promega) assays were carried out every 24 h for a total of 3 days. MTS data was calculated in the following manner: OD for background absorbance was subtracted and all samples normalized to untreated cells in order to ascertain whether any compound-dependent effect occurred.
(§3) Since formazan formation is proportional to LDH release, data was calculated by subtracting the OD background and plotting the mean ± SEM.
10^5 BxPC3 cells were treated with 10 µM hit compounds for 24 hours, and the effect on LDH staining for each time point measured by fluorescence microplate reader.

[2] = system: Panc-1 cells (S100P-negative); test: LDH release cytotoxicity assay, Panc-1; format: cell-based, Human; conditions: Panc-1, 10 μM, over three days incubation, compared to vehicle control
Experimental: Metabolic activity and cytotoxicity/cytolysis were measured with the MTS (CellTiter® 96 AQueous One Solution assay, Promega) and LDH release (CytoTox-ONE™ Homogeneous Membrane Integrity assay, Promega) assays respectively, in S100P-expressing (BxPC-3) and S100P-negative (Panc-1) cell lines, at a compound concentration of 10 μM. Cromolyn was used as a positive control. […]
1 × 10^5 Panc-1 cells and 1x10^5 BxPC-3 cells were plated and allowed to adhere for 24 h; the cells were treated with cromolyn or the hit compounds for up to 3 days. […] MTS data was calculated in the following manner: OD for background absorbance was subtracted and all samples normalized to untreated cells in order to ascertain whether any compound-dependent effect occurred.
as §3
10^5 Panc- 1 cells were treated with 10 µM hit compounds for 24 hours, and the effect on LDH staining for each time point measured by fluorescence microplate reader.

[3] = system: BxPC-3 cells (S100P-positive); test: Transwell Matrigel invasion assay, BxPC-3; format: cell-based, Human; conditions: 10% FBS chemoattractant
Experimental: The effect of the S100P-binding hit compounds to inhibit cell invasion in S100P-expressing cells in vitro was measured via a Transwell invasion assay. In this assay, cells invade through the matrigel on upper Transwell chamber towards a lower chamber containing a chemoattractant.
Data is shown as mean ± SEM number of invasive cells as counted under the microscope (x100).
The Transwell invasion assay (Fisher Scientific, Germany) was performed using chambers with polyethylene terephthalate (PET) membrane filters with 8 μm pore size coated on the upper side with Matrigel (a layer of extracellular matrix (ECM) to mimic the process of the ECM invasion.
BxPC-3 and Panc-1 cells were cultured as described above for 24 h, were re-suspended and diluted in the appropriate serum-free medium to a seeding density of 2 × 10^5 cells/mL and added to the upper chambers of the Transwell invasion chambers. DMEM and RPMI-1640 media were supplemented with 10% fetal bovine serum (FBS; Sigma, USA) to act as a chemoattractant. […]
Cells that had passed through the matrigel coated membrane to the lower surface were fixed and stained with Diff-Quik stain kit (Fisher, USA) according to the manufacturer’s instructions. […] The number of invaded cells were counted in five different fields of view using the ImageJ 1.50i software (windows version of NIH Image, http://rsb.info.nih.gov/nih-image/). […]

BxPC-3 cells = test: LDH release from cells in upper Transwell chamber, BxPC-3; format: cell-based, Human; conditions: BxPC-3, 48 h; hit compounds 10 μM, cromolyn 10, 100 and 300 μM
Experimental: (§1) In order to exclude any possibility that reduced cell invasiveness was due to cell death during the time period of the assay, the viability of cells in the upper Transwell® chamber was assessed via measurement of LDH release. […] (Supplementary Data).
(§2) Figure S2: No significant difference in cell toxicity, measured by LDH release, is observed between treated and untreated cells in the Transwell® invasion assay. Cytotoxicity was measured using the medium recovered from the upper chamber of each Transwell ® chamber which contained BxPC-3 (A) and Panc-1 (B) cells treated with cromolyn (10 µM, 100 µM, and 300 µM) and hit compounds (10 µM) and incubated for 48 h. Data are the mean ± SEM of three independent experiments (n=3). One-way ANOVA assessed significance, and Dunnett post-hoc test is denoted by ns=P>0.05 in comparison to untreated control.

Panc-1 cells = test: LDH release from cells in upper Transwell chamber, Panc-1; format: cell-based, Human; conditions: Panc-1, 48 h; hit compounds 10 μM, cromolyn 10, 100 and 300 μM
Experimental: as §1, §2

Row | Structure (SMILES) | concentration with significant inhibition of S100P-RAGE binding (S100P-RAGE interaction; ELISA) [nM] | IC50 (S100P-RAGE interaction; ELISA) [nM] | ELISA inhibition (S100P-RAGE interaction) [nM∗] | melting point [°C] | maximum inhibition of S100P-RAGE binding (S100P-RAGE interaction; ELISA) [%] | cytotoxicity (LDH release) [1] | cytotoxicity (LDH release) [2] | inhibition of cell invasion to the lower chamber ([3]; BxPC-3, 10 μM, 48 h) | concentration with significant inhibition of invasion ([3]; BxPC-3, 48 h) [µM] | LDH release of cells in upper Transwell chamber (BxPC-3 cells) | LDH release of cells in upper Transwell chamber (Panc-1 cells)
1 | O=C1C2C3c4ccccc4C(c4ccccc43)C2C(=O)N1c1cccc(F)c1 (centres unmarked) [Compound 4o, 13-(3-fluorophenyl)-9,10-dihydro-9,10-[3,4]epipyrroloanthracene-12,14-dione] | ≤ 100 | 1.3 | 10 | 228 to 230 |  |  |  |  |  |  | 
2 | O=C1C2C3c4ccccc4C(c4ccccc43)C2C(=O)N1c1ccccc1 (centres unmarked) [Compound 4r, 13-Phenyl-9,10-dihydro-9,10-[3,4]epipyrroloanthracene-12,14-dione] | ≤ 100 | 0.796 | 10 | 211 to 215 |  |  |  |  |  |  | 
3 | O=C1C2C3c4ccccc4C(c4ccccc43)C2C(=O)N1c1ccc(F)cc1 (centres unmarked) [Compound 4u, 13-(4-fluorophenyl)-9,10-dihydro-9,10-[3,4]epipyrroloanthracene-12,14-dione] | ≤ 100 | 4.15 | 10 | 250 to 253 |  |  |  |  |  |  | 
4 | O=C(O)c1cc(=O)c2c(OCC(O)COc3cccc4oc(C(=O)O)cc(=O)c34)cccc2o1 [cromolyn] | ≥ 100 |  |  |  | 56 | neither the hit compounds nor cromolyn exhibited cytotoxicity | neither the hit compounds nor cromolyn exhibited cytotoxicity | did not exhibit a statistically significant effect | ≥ 100 | no significant increase in LDH release | no significant increase in LDH release
